Reference: patent US20100304426A1, “Analytical Methods for Measuring Synthetic Progesterone” (priority 2009, published 2010)
Like-named read-outs stand apart in the source and are kept apart here. Marks after values point to notes of the source that are not given here.

Tests used:
clinical = settings: human, in vivo, 200 mg
From the text: A definitive low-level LC/MS/MS analytical method to determine the concentrations of synthetic progesterone in human plasma is described. Instrumentation used in this example includes an Applied Biosystems Q-Trap 4000 system using Analyst® 1.4.2 software, Shimadzu LC-20AD HPLC pumps and a LEAP HTC PAL Autosampler. As understood by a person skilled in the art, various similar or equivalent pieces of instrumentation can be used to perform this method. It is also recognized that improved instrumentation can be introduced utilizing equivalent or similar principles of analysis to perform this method similarly or better by being faster, more sensitive, more accurate or more robust relative to the instrumentation used herein. Analyze the pregnant female plasma isotopic ratio standard seven consecutive times. Analyze the synthetic isotopic ratio standard at least seven consecutive times. Analyze the plate beginning with the first calibration sample. Using the data from the seven injections of pregnant female plasma calculate the average area for the progesterone transition and for the progesterone isotope transition. Calculate the ratio by dividing the average area of the progesterone peak by the average area of the isotope peak. This is the natural progesterone ratio. Using the data from the seven injections of the Synthetic Standard calculate the average area for the progesterone transition and for the progesterone isotope transition. Calculate the ratio by dividing the average area of the progesterone peak by the average area of the isotope peak. This is the synthetic progesterone ratio. […] In addition, data presented herein are for fasted post-menopausal women. Fasting can affect progesterone uptake. In this example, healthy, fasted, post-menopausal women orally ingest 1×200 mg progesterone. Plasma samples are obtained from 2 h pre-dose to 24 h post-dose. […] Cmax is the maximum observed concentration and Tmax the time at which Cmax took place. Clast is the value of the last measurable concentration, and […].

[1] = reported; cited from earlier work
[2] = set-up: AUC / Cmax: unit not given beside the values; settings: from package insert, total progesterone, cited from earlier work

Q: What does the source list for `CC(=O)[C@H]1CC[C@H]2[C@@H]3CCC4=CC(=O)CC[C@]4(C)[C@H]3CC[C@]12C` [Total Progesterone]?
A: AUClast (clinical; po): 6.47 ng·h/mL; Tmax (clinical; po): 2.00 h

Q: Which AUClast (clinical; po) does the source give for `CC(=O)[C@H]1CC[C@H]2[C@@H]3CCC4=CC(=O)CC[C@]4(C)[C@H]3CC[C@]12C` [Endogenous Progesterone] here?
A: 3.84 ng·h/mL

Q: What about the Tmax (clinical; po) of the same molecule?
A: 2.33^a h

Q: With `CC(=O)[C@H]1CC[C@H]2[C@@H]3CCC4=CC(=O)CC[C@]4(C)[C@H]3CC[C@]12C` [progesterone] as the molecule, how does the “half life in the circulation” value [1] read?
A: only a few minutes

Q: Which results are given for `CC(=O)[C@H]1CC[C@H]2[C@@H]3CCC4=CC(=O)CC[C@]4(C)[C@H]3CC[C@]12C` [PROMETRIUM, pregn-4-ene-3,20-dione]?
A: AUC (clinical; female): 1.6 ng·h/mL; Cmax (clinical; female): 3.1 ± 2.3; Cmax (clinical; female, Cmax): 1.05 ng/mL; Tmax (clinical; female, po): 2.63 h; AUC(0-t) (clinical; female, po, AUC0-4 h): 1.01 to 2.37 ng·h/mL; AUC(0-t) (clinical; female, po, AUClast): 2.11 ng·h/mL; Cmax (clinical; female, po, Cmax): 0.62 to 1.6 ng/mL; AUC ([2]; 100 mg after 5 daily doses): 43.3 + 30.8; Cmax ([2]; 100 mg after 5 daily doses): 17.3 + 21.9; Cmax ([2]; 200 mg after 5 daily doses): 38.1 + 37.8; Tmax ([2]; 200 mg after 5 daily doses): 2.3 + 1.4; AUC ([2]; 300 mg after 5 daily doses): 175.7 + 170.3; Cmax ([2]; 300 mg after 5 daily doses): 60.6 + 72.5; Tmax ([2]; 300 mg after 5 daily doses): 1.7 + 0.6
